What was measured:
[1] = molecular target: T1, CDK4/cyclin D3 (Homo sapiens, UniProt P11802); experiment: In vitro biochemical kinase activity assay for CDK4/cyclin D3 (HTRF)
T1 construct: purchased Carna
Protocol: II. In Vitro Biochemical Kinase Activity Assay for CDK4/Cyclin D3
The inhibitory effects of the compounds of the present invention on CDK4/cyclin D3 kinase activity were determined using an HTRF assay. The experimental process was as follows: • 1. The kinase reaction was carried out in a 384-well plate. 4.9 nM CDK4/cyclin D3 (Carna), 1 mM (or 80 µM) ATP, and 0.3 µM biotin-labeled substrate protein Rb-biotin (Cisbio) were incubated at 30°C for 90 min in a buffer system composed of 50 mM MgCl2, 1 mM DTT, and basal kinase buffer (Cisbio). • 2. The detection solution (Cisbio, containing reagents that specifically recognize phosphorylated Rb and Rb-biotin proteins, respectively) was added. The plate was then sealed with a film (to protect from light and volatilization) and incubated at 25°C for 60 min. • 3. The plate was transferred to an Envision plate reader to detect FRET signals. (The 665/615 ratio was calculated by reading the emission at 665 nm and 615 nM, respectively.) • 4. The IC50 values were determined by analyzing the inhibition at varying compound concentrations using Model 205 in the XLfit software.

[2] = molecular target: T2, CDK6/cyclin D3 (Homo sapiens, UniProt Q00534); experiment: In vitro biochemical kinase activity assay for CDK6/cyclin D3 (HTRF)
T2 construct: purchased Carna
Protocol: III. In Vitro Biochemical Kinase Activity Assay for CDK6/Cyclin D3
The inhibitory effects of the compounds of the present invention on CDK6/cyclin D3 kinase activity were determined using an HTRF assay. The experimental process was as follows: 1. The kinase reaction was carried out in a 384-well plate. 0.02 nM CDK6/cyclin D3 (Carna), 1 mM (or 100 µM) ATP, and 0.3 µM biotin-labeled substrate protein Rb-biotin (Cisbio) were incubated at 30°C for 60 min in a buffer system composed of 5 mM MgCl2, 1 mM DTT, and basal kinase buffer (Cisbio). 2. The detection solution (Cisbio, containing reagents that specifically recognize phosphorylated Rb and Rb-biotin proteins, respectively) was added. The plate was then sealed with a film (to protect from light and volatilization) and incubated at 25°C for 60 min. 3. The plate was transferred to an Envision plate reader to detect FRET signals. (The 665/615 ratio was calculated by reading the emission at 665 nm and 615 nM, respectively.) 4. The IC50 values were determined by analyzing the inhibition at varying compound concentrations using Model 205 in the XLfit software.

[3] = data marked with *: 1 mM ATP in Step 1
[4] = unmarked data: 80 µM ATP in Step 1
[5] = unmarked data: 100 µM ATP in Step 1

T1 sequence (P11802 whole entry): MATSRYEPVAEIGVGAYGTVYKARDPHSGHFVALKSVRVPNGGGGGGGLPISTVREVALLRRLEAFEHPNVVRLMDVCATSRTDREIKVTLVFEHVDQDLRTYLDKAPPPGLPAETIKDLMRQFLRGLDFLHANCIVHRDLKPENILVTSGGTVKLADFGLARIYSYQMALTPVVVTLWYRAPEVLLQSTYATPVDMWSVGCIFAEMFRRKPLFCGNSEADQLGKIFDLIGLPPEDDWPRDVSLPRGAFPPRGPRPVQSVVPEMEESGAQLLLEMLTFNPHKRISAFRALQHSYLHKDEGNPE
T1 sequence (P30281 whole entry partner): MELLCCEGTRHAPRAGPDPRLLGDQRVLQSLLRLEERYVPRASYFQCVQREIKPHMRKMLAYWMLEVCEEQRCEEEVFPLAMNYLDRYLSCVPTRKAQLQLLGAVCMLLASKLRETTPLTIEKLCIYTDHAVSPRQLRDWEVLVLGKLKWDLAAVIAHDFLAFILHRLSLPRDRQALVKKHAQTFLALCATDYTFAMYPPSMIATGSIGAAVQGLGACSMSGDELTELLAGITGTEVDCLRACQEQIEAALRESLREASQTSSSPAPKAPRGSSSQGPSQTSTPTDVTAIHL
T2 sequence (Q00534 whole entry): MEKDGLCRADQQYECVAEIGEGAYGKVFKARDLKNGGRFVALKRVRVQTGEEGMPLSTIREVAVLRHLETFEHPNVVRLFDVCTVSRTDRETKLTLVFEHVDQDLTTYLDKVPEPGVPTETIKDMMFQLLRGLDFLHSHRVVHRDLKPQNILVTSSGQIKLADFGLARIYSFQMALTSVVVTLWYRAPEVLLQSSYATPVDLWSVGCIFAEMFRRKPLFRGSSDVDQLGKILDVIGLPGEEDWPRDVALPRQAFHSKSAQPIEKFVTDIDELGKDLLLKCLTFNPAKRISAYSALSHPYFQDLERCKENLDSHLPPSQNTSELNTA
T2 sequence (P30281 whole entry partner): as the sequence (P30281 whole entry partner) above

Row | SMILES | IC50 [1, 3] [µM] | IC50 [2, 3] [µM] | IC50 [1, 4] [µM] | IC50 [2, 5] [µM]
1 | CC(C)n1c(C#Cc2nc(N[C@@H]3CCOC[C@H]3O)ncc2Cl)cnc1CN1CCC[C@H](F)C1 [Example 105, (3S,4R)-4-((5-chloro-4-((2-(((S)-3-fluoropiperidin-1-yl)methyl)-1-isopropyl-1H-imidazol-5-yl)ethynyl)pyrimidin-2-yl)amino)tetrahydro-2H-pyran-3-ol] | 0.0264 | 0.413 | – | –
2 | CC(C)c1c(C#Cc2nc(N[C@@H]3CCOC[C@H]3O)ncc2Cl)cnn1CC(C)(C)O [Example 64, (3 S,4R)-4-((5-chloro-4-((1-(2-hydroxy-2-methylpropyl)-5-isopropyl-1H-pyrazol-4-yl)ethynyl)pyrimidin-2-yl)amino)tetrahydro-2H-pyran-3-ol] | – | – | 0.0132 | 0.132
3 | CCN1CCN(C(=O)c2ccc(Nc3ncc(Cl)c(C#Cc4cnc(C(C)(C)O)n4C(C)C)n3)nc2)CC1 [Example 67, (6-((5-chloro-4-((2-(2-hydroxypropan-2-yl)-1-isopropyl-1H-imidazol-5-yl)ethynyl)pyrimidin-2-yl)amino)pyridin-3-yl)(4-ethylpiperazin-1-yl)methanone] | – | – | 0.00117 | 0.00588
4 | CCN1CCN(Cc2ccc(Nc3ncc(Cl)c(C#Cc4cnc(C(C)O)n4C(C)C)n3)nc2)CC1 (centres unmarked) [Example 122, 1-(5-((5-chloro-2-((5-((4-ethylpiperazin-1-yl)methyl)pyridin-2-yl)amino)pyrimidin-4-yl)ethynyl)-1-isopropyl-1H-imidazol-2-yl)ethan-1-ol] | 0.00207 | 0.00784 | – | –
5 | CC(C)n1c(C#Cc2nc(N[C@H]3CC[C@H](NS(C)(=O)=O)CC3)ncc2Cl)cnc1C(C)(C)O [Example 99, N-((1R,4R)-4-((5-chloro-4-((2-(2-hydroxypropan-2-yl)-1-isopropyl-1H-imidazol-5-yl)ethynyl)pyrimidin-2-yl)amino)cyclohexyl)methanesulfonamide] | 0.0281 | 0.19 | – | –
6 | CC(C)n1c(C#Cc2nc(N[C@@H]3CCNC[C@H]3O)ncc2Cl)cnc1C(C)(C)O [Example 60, (3R,4R)-4-((5-chloro-4-((2-(2-hydroxypropan-2-yl)-1-isopropyl-1H-imidazol-5-yl)ethynyl)pyrimidin-2-yl)amino)piperidin-3-ol] | – | – | 0.0476 | 0.162
7 | CC(C)c1c(C#Cc2nc(Nc3ccc(N4CC5(CN(C)C5)C4)cn3)ncc2F)cnn1C [Example 93, 5-fluoro-4-((5-isopropyl-1-methyl-1H-pyrazol-4-yl)ethynyl)-N-(5-(6-methyl-2,6-diazaspiro[3 .3]heptan-2-yl)pyridin-2-yl)pyrimidin-2-amine] | 0.00728 | 0.0337 | – | –
8 | CC(C)n1c(C#Cc2nc(Nc3ccc(N4CC5(CN(C)C5)C4)cn3)ncc2Cl)cnc1CN1CCC[C@H](O)C1 [Example 115, (S)-1-((5-((5-chloro-2-((5-(6-methyl-2,6-diazaspiro[3.3]heptan-2-yl)pyridin-2-yl)amino)pyrimidin-4-yl)ethynyl)-1-isopropyl-1H-imidazol-2-yl)methyl)piperidin-3-ol] | 0.00228 | 0.0179 | – | –
9 | CC(C)n1c(C#Cc2nc(N[C@@H]3CCOC[C@H]3C)ncc2Cl)cnc1C(C)(C)O [Example 86, 2-(5-((5-chloro-2-(((3 S,4R)-3-methyltetrahydro-2H-pyran-4-yl)amino)pyrimidin-4-yl)ethynyl)-1-isopropyl-1H-imidazol-2-yl)propan-2-ol] | – | – | 0.48 | 1.97
10 | CC(C)n1c(C#Cc2nc(Nc3ccc(C4C5CN(C)CC54)cn3)ncc2Cl)cnc1C(C)(C)O (centres unmarked) [Example 119, 2-(5-((5-chloro-2-((5-(3-methyl-3-azabicyclo[3.1.0]hexan-6-yl)pyridin-2-yl)amino)pyrimidin-4-yl)ethynyl)-1-isopropyl-1H-imidazol-2-yl)propan-2-ol] | 0.00537 | 0.0154 | – | –
11 | CC(C)c1c(C#Cc2nc(Nc3ccc(N4CC5(CN(CCF)C5)C4)cn3)ncc2F)cnn1C [Example 82, 5-Fluoro-N-(5-(6-(2-fluoroethyl)-2,6-diazaspiro[3.3]heptan-2-yl)pyridin-2-yl)-4-((5-isopropyl-1-methyl-1H-pyrazol-4-yl)ethynyl)pyrimidin-2-amine] | 0.00325 | 0.0295 | – | –
12 | CCN1CC2(C1)CN(c1ccc(Nc3ncc(Cl)c(C#Cc4cnc(CN5[C@@H](C)COC[C@@H]5C)n4C(C)C)n3)nc1)C2 [Example 104, 5-chloro-4-((2-(((3 S,5 S)-3,5-dimethylmorpholino)methyl)-1-isopropyl-1H-imidazol-5-yl)ethynyl)-N-(5-(6-ethyl-2,6-diazaspiro[3.3]heptan-2-yl)pyridin-2-yl)pyrimidin-2-amine] | 0.00557 | 0.0452 | – | –
13 | CC(C)n1c(C#Cc2nc(Nc3ccc(C(=O)N(C)C)cn3)ncc2Cl)cnc1C(C)(C)O [Example 100, 6-((5-chloro-4-((2-(2-hydroxypropan-2-yl)-1-isopropyl-1H-imidazol-5-yl)ethynyl)pyrimidin-2-yl)amino)-N,N-dimethylnicotinamide] | 0.00669 | 0.0259 | – | –
14 | CC(C)(C)n1cncc1C#Cc1nc(N[C@@H]2CCOC[C@H]2O)ncc1Cl [Example 136, (3S,4R)-4-((4-((1-(tert-butyl)-1H-imidazol-5-yl)ethynyl)-5-chloropyrimidin-2-yl)amino)tetrahydro-2H-pyran-3-ol] | – | – | 0.0103 | 0.0393
15 | CC(C)n1c(C#Cc2nc(N[C@@H]3CCOC[C@H]3O)ncc2Cl)cnc1C1CCCN1 (stereo partly drawn) [Example 68, (3 S,4R)-4-((5-chloro-4-((1-isopropyl-2-(pyrrolidin-2-yl)-1H-imidazol-5-yl)ethynyl)pyrimidin-2-yl)amino)tetrahydro-2H-pyran-3-ol] | 0.0767 | 2.6 | – | –
16 | CC(C)n1c(C#Cc2nc(Nc3ccc(N4CC5(CN(CC(F)(F)F)C5)C4)cn3)ncc2Cl)cnc1CN1CCC[C@H](O)C1 [Example 113, (S)-1-((5-((5-chloro-2-((5-(6-(2,2,2-trifluoroethyl)-2,6-diazaspiro[3.3]heptan-2-yl)pyridin-2-yl)amino)pyrimidin-4-yl)ethynyl)-1-isopropyl-1H-imidazol-2-yl)methyl)piperidin-3-ol] | 0.00595 | 0.0456 | – | –
17 | CN(C)c1c(C#Cc2nc(N[C@@H]3CCOC[C@H]3O)ncc2Cl)cnn1C [Example 130, (3 S,4R)-4-((5-chloro-4-((5-(dimethylamino)-1-methyl-1H-pyrazol-4-yl)ethynyl)pyrimidin-2-yl)amino)tetrahydro-2H-pyran-3-ol] | 0.0235 | 0.222 | – | –
18 | CC(C)n1c(C#Cc2nc(N[C@@H]3CCOC[C@H]3O)ncc2Cl)cnc1CN1CC(C)(O)C1 [Example 38, 1-((5-((5-chloro-2-(((3 S,4R)-3-hydroxytetrahydro-2H-pyran-4-yl)amino)pyrimidin-4-yl)ethynyl)-1-isopropyl-1H-imidazol-2-yl)methyl)-3-methylazetidin-3-ol] | 0.172 | 2.12 | – | –
19 | CCN1CC2(C1)CN(c1ccc(Nc3ncc(Cl)c(C#Cc4cnc(CN5CCC[C@H](O)C5)n4C(C)C)n3)nc1)C2 [Example 108, (S)-1-((5-((5-chloro-2-((5-(6-ethyl-2,6-diazaspiro[3.3]heptan-2-yl)pyridin-2-yl)amino)pyrimidin-4-yl)ethynyl)-1-isopropyl-1H-imidazol-2-yl)methyl)piperidin-3-ol] | 0.00525 | 0.0519 | – | –
20 | CC(C)n1c(C#Cc2cc(N[C@@H]3CCOC[C@H]3O)ncc2Cl)cnc1C(C)(C)O [Example 118, (3 S,4R)-4-((5-chloro-4-((2-(2-hydroxypropan-2-yl)-1-isopropyl-1H-imidazol-5-yl)ethynyl)pyridin-2-yl)amino)tetrahydro-2H-pyran-3-ol] | 0.0217 | 0.135 | – | –
21 | CC(C)n1c(C#Cc2nc(N[C@@H]3CCOC[C@H]3O)ncc2Cl)cnc1CN1CCC[C@H](C#N)C1 [Example 103, (S)-1-((5-((5-chloro-2-(((3 S,4R)-3-hydroxytetrahydro-2H-pyran-4-yl)amino)pyrimidin-4-yl)ethynyl)-1-isopropyl-1H-imidazol-2-yl)methyl)piperidin-3-carbonitrile] | 0.0119 | 0.256 | – | –
22 | CCN1CCN(Cc2ccc(Nc3ncc(Cl)c(C#Cc4cnc(C(C)(C)O)n4C(C)C)n3)nc2F)CC1 [Example 84, 2-(5-((5-chloro-2-((5-((4-ethylpiperazin-1-yl)methyl)-6-fluoropyridin-2-yl)amino)pyrimidin-4-yl)ethynyl)-1-isopropyl-1H-imidazol-2-yl)propan-2-ol] | 0.00744 | 0.0489 | – | –

— patent EP4782445A1, “CDK KINASE INHIBITOR AND USE THEREOF” (Abbisko Therapeutics Co., Ltd., priority 2023, dated 2025)
